Measurements: patent publication US12208001B2, “Methods and systems for preventing or reducing stenosis in a subject receiving a graft” (The General Hospital Corporation, priority 2012, dated 2025)
Where two headings read alike, the source gives them in different places.

Columns and labels:
connective tissue = test system: connective tissue
Excerpt: In certain embodiments, a photoactive agent, e.g., Rose Bengal, can be applied, e.g., by brushing, dripping or spraying onto, or injecting into, tissue surfaces (e.g., a single surface in some cases) of a tissue prior to the application of electromagnetic energy, followed by irradiation at an irradiance of less than about 1 W/cm^2. Penetration of topically applied Rose Bengal is about 100 μm or less into connective tissue. […] Similarly, vein grafts or arteriovenous fistula can be prepared for therapeutic use by providing Rose Bengal to the tissue and irradiating the tissue at an irradiance of less than about 1 W/cm^2.

[1] = test system: fascia of the implant pocket; assay: Biodegradation assay: collagenase digestion of fascia; set-up: species or system rabbit
Description: A pilot experiment in a rabbit model for capsular contraction was developed. Three sub-cutaneous pockets were made by surgical incision on the upper rabbit flank. One pocket was left untreated and surgically closed (No fibrin glue). Of the remaining two, one was treated with Fibrin Glue only, and one received Fibrin Glue+RB (0.1% Rose Bengal)+532 nm light (3 min at 350 mW). Fibrin glue is known to produce a fibrotic reaction in this model. After two weeks all three pockets were surgically re-accessed and inspected. […] These cells also appear contained under layers of presumably, cross-linked collagen. A biodegradation assay was also performed. Pockets were treated as described above at both a low (1 J/cm^2) and high (25 J/cm^2) fluence. Fluence was measured using FieldMax II laser power meter (Coherent, Santa Clara, CA). Immediately following, the skin and fascia were removed. Treated and untreated fascia were biopsied with a six mm punch biopsy, weighed and subjected to digestion in a 1% collagenase (Sigma Aldrich. St. Louis, MO) solution at 37° C. Time for complete digestion (the lack of any visible fibers) was recorded for each sample and corrected by weight. In vitro studies confirmed that photochemical tissue passivation, under the conditions that were subsequently used in the animal study, could successfully alter the fascia of the implant pocket. […]

[2] = test system: vein graft intimal hyperplasia; type: in vivo, Sprague-Dawley rats
Description: In vivo testing was done by placing a. reversed epigastric vein interposition graft in the femoral artery of Sprague-Dawley rats. Grafts were harvested after four weeks. A total of 16 rats underwent a femoral interposition graft with reversed epigastric vein. Half of the vein gratis (N=8) were treated with PTP using 25 J/cm^2 at fluence. Average operative time was two hours. Additional operative time for PTP was 4-5 minutes on average. There were three instances of surgical wound dehiscence between post-operative day one and two; one in the control group and two in the experimental group. These wounds were irrigated and resutured. None of the grafts were exposed. […] After four weeks, 100% of the vein grafts were patent. […] Histologic cross-sections of the mid-portion of the graft were analyzed using light microscopy. Intimal thickness was measured as the distance between the internal elastic lamina. and the vessel lumen.

[3] = test system: rabbit model for capsular contraction; assay: Pilot rabbit model for capsular contraction: sub-cutaneous pockets with fibrin glue, histology at two weeks; type: in vivo; settings: tissue harvested at two weeks; 0.1% Rose Bengal + 532 nm light (3 min at 350 mW) prior to fibrin glue; vs fibrin glue only
Description: A pilot experiment in a rabbit model for capsular contraction was developed. Three sub-cutaneous pockets were made by surgical incision on the upper rabbit flank. One pocket was left untreated and surgically closed (No fibrin glue). Of the remaining two, one was treated with Fibrin Glue only, and one received Fibrin Glue+RB (0.1% Rose Bengal)+532 nm light (3 min at 350 mW). Fibrin glue is known to produce a fibrotic reaction in this model. After two weeks all three pockets were surgically re-accessed and inspected. […] These cells also appear contained under layers of presumably, cross-linked collagen. A biodegradation assay was also performed. Pockets were treated as described above at both a low (1 J/cm^2) and high (25 J/cm^2) fluence. Fluence was measured using FieldMax II laser power meter (Coherent, Santa Clara, CA). Immediately following, the skin and fascia were removed. Treated and untreated fascia were biopsied with a six mm punch biopsy, weighed and subjected to digestion in a 1% collagenase (Sigma Aldrich. St. Louis, MO) solution at 37° C. Time for complete digestion (the lack of any visible fibers) was recorded for each sample and corrected by weight.

[4] = test system: capsular contracture following prosthetic implant placement; assay: Pre-clinical model of capsular contracture following prosthetic implant placement, fibrin glue induced; type: in vivo, New Zealand white rabbits
Description: The effect of Photochemical Tissue Passivation in a pre-clinical model of capsular contracture following prosthetic implant placement was evaluated. Under general anesthesia, Nine New Zealand white rabbits received three, six cc smooth saline implants placed in the dorsal sub-panniculus soft tissue. Each Rabbit received one control implant and two experimental implants. Briefly, the subpanniculus camosus plane in the dorsum region was dissected and a single customized six cc saline smooth implant with pressure port valve (Allergan Inc., CA, USA) was placed. A total of three implants were placed on the dorsum of each rabbit. The control group consisted of an implant with no Fibrin Glue and no PTP treatment. Before implant placement, the pocket site of the PTP experimental group was treated with 2 ml 0.1% Rose Bengal in a phosphate buffered saline, and Was then exposed to green laser light at 532 nm from a continuous wave KTP laser (Laserscope Aura-I, San Jose, CA). The second experimental group consisted of an implant with Fibrin Glue only. Prior to implant placement, all experimental pockets were injected with five cc of fibrin glue, 500 |μl of 10% CaCl, 1000 units of thrombin in one milliliter of 50 mM TrisCl as a contracture inducing agent. The incisions were closed in two layers with subdermal 4-0 […] and 4-0 interrupted nylon sutures. Topical fibrin glue was applied to the implant pockets in all experimental groups to induce subsequent capsular contracture. Accordingly, the experimental groups can be summarized as follows: Group 1: Control group-“Standard Breast Augmentation” One pocket per Rabbit undergoing standard implant placement with no Fibrin Glue or Passivation. One six cc smooth saline implant was placed per pocket. The incisions were closed in two layers with subdermal 4-0 Vicryl and 4-0 interrupted nylon sutures. Group 2: Experimental group-“Fibrin Glue” only One dorsal pocket per Rabbit is dissected. Fibrin glue was injected into the implant pocket as a capsular contracture-inducing agent. One six cc smooth saline implants was placed per pocket. The incision was closed as above. Group 3: Experimental group-“Pre-implant Tissue Passivation” One dorsal pocket per Rabbit was dissected, Rose Bengal dye was applied. The pocket was exposed to green laser light at. 532 nm from. a continuous wave KT.? laser (Laserscope Aura-I, San Jose, CA). Fibrin glue was injected into the implant pocket as a capsular contracture-inducing agent. Following fibrin glue injection, one six cc smooth saline implant was placed per pocket. The incision was closed as above. Capsule specimens were fixed with 10% buffered formalin and embedded in paraffin. Sections were stained with both Masson Trichrome, and SMA antibody and evaluated histologically and capsular thickness was measured. […] In fact, the SMA pattern in capsules harvested from the treated groups resembled those, which had not been instilled with fibrin glue (FIG. 3).

O=C1OC2(c3cc(I)c(O)c(I)c3Oc3c2cc(I)c(O)c3I)c2c(Cl)c(Cl)c(Cl)c(Cl)c21 [PTP, Rose Bengal]
penetration into connective tissue (connective tissue): ≤ 100 μm
increase in degradation time (collagenase digestion) ([1]; 1% collagenase, 37° C, compared to untreated tissue): 300%
effect of increasing the power of the laser on collagen cross-linking ([1]; high (25 J/cm^2) vs low (1 J/cm^2) fluence): did not increase collagen cross-linking
Intimal Thickness ([2]; after four weeks, N = 8, Table 2): 24 + 22 um
Medial thickness ([2]; after four weeks, N = 8, Table 3): 141 + 40 um
vein grafts patent ([2]; after four weeks, all grafts, treated and untreated): 100%
neointimal thickness ([2]; four weeks, PTP 25 J/cm^2, N=8): 24+22 μm
Medial thickness ([2]; four weeks, treated grafts): 141 µm
instances of surgical wound dehiscence ([2]; rat, in vivo): two
pseudoaneurysms or aneurysmal dilatation of the grafts ([2]; rat, in vivo): no pseudoaneurysms or aneurysmal dilatation
wound infections ([2]; rat, in vivo): no wound infections
graft distention after vessel clamp removal ([2]; restored blood flow, compared to untreated controls): less distention
smooth muscle hypertrophy and medial thickness ([2]; treated compared to untreated grafts): marked reduction in smooth muscle hypertrophy and medial thickness
reduction in neointimal thickness ([2]; treated grafts vs untreated): 70%
inflammatory infiltrate within the implant pockets (histology) [3]: less infiltrate
capsular thickness compared to Fibrin Glue alone control (histology) ([4]; eight weeks, Fibrin Glue + Photochemical Tissue Passivation group): significant decrease in capsular thickness
decrease in capsule thickness ([4]; eight weeks, compared to the controls): 52%
deposition of smooth muscle actin (SMA immunohistochemistry) ([4]; eight weeks, treated pockets vs untreated pockets receiving fibrin glue): significantly less deposition of smooth muscle actin
fibrohistiocystic cells, macrophages and synovial metaplasia ([4]; treated pockets): less fibrohistiocystic cells, macrophages and synovial metaplasia
inflammation and vascularity within the capsule ([4]; treated pockets): decreased inflammation and vascularity
